The results in this text go back to ChEMBL document CHEMBL5523713, “Development of novel N-aryl-2,4-bithiazole-2-amine-based CYP1B1 degraders for reversing drug resistance” (Eur J Med Chem, 2024).

What all share (assay type): ADME, cell-based
Data set [1] concerns the target T1, Protein cereblon/Cytochrome P450 1B1 (Homo sapiens, UniProt Q16678+Q96SW2). Nature of the data set: PROTAC activity at CRBN/CYP1B1 in human A549/Taxol cells assessed as degradation by measuring fold change in remaining CYP1B1 level at 1 nM incubated for 24 hrs by Western blotting analysis (reference value: 1). To be noted: 0.001 µM. A general note: In western blotting, separated proteins are transferred to a membrane and probed.

In data set [2] the target is T1, Protein cereblon/Cytochrome P450 1B1. Nature of the data set: PROTAC activity at CRBN/CYP1B1 in human A549/Taxol cells assessed as degradation by measuring fold change in remaining CYP1B1 level at 1000 nM incubated for 24 hrs by Western blotting analysis (reference value: 1). To be noted: 1 µM.
Data set [3] has as its target T2, von Hippel-Lindau disease tumor suppressor/Cytochrome P450 1B1 (Homo sapiens, UniProt Q16678+P40337). The data set can be described thus: PROTAC activity at VHL/CYP1B1 in human A549/Taxol cells assessed as degradation by measuring fold change in remaining CYP1B1 level at 1000 nM incubated for 24 hrs by Western blotting analysis (reference value: 1). To be noted: 1 µM.

The target in data set [4] is T2, von Hippel-Lindau disease tumor suppressor/Cytochrome P450 1B1. The data set can be described thus: PROTAC activity at VHL/CYP1B1 in human A549/Taxol cells assessed as degradation by measuring fold change in remaining CYP1B1 level at 1 nM incubated for 24 hrs by Western blotting analysis (reference value: 1). Particulars: 0.001 µM.

T1 sequence (Q16678 whole entry): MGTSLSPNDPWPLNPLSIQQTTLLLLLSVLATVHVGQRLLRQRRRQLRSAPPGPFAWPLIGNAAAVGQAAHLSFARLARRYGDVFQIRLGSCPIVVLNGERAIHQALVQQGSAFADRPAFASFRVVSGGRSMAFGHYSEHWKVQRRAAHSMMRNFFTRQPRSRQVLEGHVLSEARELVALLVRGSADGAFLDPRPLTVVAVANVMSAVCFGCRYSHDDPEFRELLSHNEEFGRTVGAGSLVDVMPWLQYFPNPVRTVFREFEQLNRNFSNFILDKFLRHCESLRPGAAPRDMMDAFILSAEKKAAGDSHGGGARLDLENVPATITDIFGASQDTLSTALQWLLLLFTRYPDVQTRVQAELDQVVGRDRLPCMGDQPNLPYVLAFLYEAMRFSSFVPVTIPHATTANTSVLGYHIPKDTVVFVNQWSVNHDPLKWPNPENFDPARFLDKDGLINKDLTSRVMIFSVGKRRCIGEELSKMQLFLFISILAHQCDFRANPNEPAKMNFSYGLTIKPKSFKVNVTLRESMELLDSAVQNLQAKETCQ
T1 sequence (Q96SW2 whole entry): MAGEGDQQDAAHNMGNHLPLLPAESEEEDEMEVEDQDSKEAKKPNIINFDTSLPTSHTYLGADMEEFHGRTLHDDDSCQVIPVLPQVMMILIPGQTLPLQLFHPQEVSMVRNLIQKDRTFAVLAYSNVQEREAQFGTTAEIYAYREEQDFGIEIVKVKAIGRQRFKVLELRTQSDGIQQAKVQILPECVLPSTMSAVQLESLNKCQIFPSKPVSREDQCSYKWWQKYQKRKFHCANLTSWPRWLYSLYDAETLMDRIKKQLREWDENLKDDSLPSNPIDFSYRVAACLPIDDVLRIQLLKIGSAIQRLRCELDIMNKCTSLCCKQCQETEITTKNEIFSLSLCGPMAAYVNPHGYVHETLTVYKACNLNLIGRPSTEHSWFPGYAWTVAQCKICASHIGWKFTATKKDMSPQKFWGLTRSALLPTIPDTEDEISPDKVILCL
T2 sequence (Q16678 whole entry): as the sequence (Q16678 whole entry) above
T2 sequence (P40337 whole entry): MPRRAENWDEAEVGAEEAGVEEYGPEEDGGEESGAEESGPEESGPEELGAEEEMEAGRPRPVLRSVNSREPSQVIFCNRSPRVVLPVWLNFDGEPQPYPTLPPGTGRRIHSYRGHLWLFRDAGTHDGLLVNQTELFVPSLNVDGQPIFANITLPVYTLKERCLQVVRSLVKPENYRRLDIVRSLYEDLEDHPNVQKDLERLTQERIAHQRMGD

Consider `O=C1CCC(N2Cc3c(NC(=O)CCCCCCCC(=O)Nc4ccc(-c5csc(-c6csc(Nc7ccc(Cl)cc7)n6)n5)cc4)cccc3C2=O)C(=O)N1` (stereo not given), for which the figures for the “fold change (FC)” value in data set [1] and in data set [2] were 0.8 and 1, respectively.
Take `O=C1CCC(N2C(=O)c3cccc(NC(=O)CN4CCN(CCCCCCCC(=O)Nc5ccc(-c6csc(-c7csc(Nc8ccc(Cl)cc8)n7)n6)cc5)CC4)c3C2=O)C(=O)N1` (stereo not given): the “fold change (FC)” value was 0.7 in data set [1] and 1 in data set [2].
In the case of `O=C1CCC(N2Cc3c(NC(=O)CCCCCCCCCCCC(=O)Nc4ccc(-c5csc(-c6csc(Nc7ccc(Cl)cc7)n6)n5)cc4)cccc3C2=O)C(=O)N1` (stereo not given), the “fold change (FC)” value in data set [1] came to 0.7; in data set [2] it was 1.
Consider `O=C1CCC(N2C(=O)c3cccc(NC(=O)CN4CCN(CCCCCCCCCC(=O)Nc5ccc(-c6csc(-c7csc(Nc8ccc(Cl)cc8)n7)n6)cc5)CC4)c3C2=O)C(=O)N1` (stereo not given), for which the “fold change (FC)” value was 0.8 in data set [1] and 1.2 in data set [2].
For the molecule `O=C1CCC(N2Cc3c(NC(=O)CCCCCCCCCC(=O)Nc4ccc(-c5csc(-c6csc(Nc7ccc(Cl)cc7)n6)n5)cc4)cccc3C2=O)C(=O)N1` (stereo not given), the “fold change (FC)” value in data set [1] came to 1.1; in data set [2] it was 1.3.
The like results for `O=C1CCC(N2Cc3c(NC(=O)CCCCCC(=O)Nc4ccc(-c5csc(-c6csc(Nc7ccc(Cl)cc7)n6)n5)cc4)cccc3C2=O)C(=O)N1` (stereo not given) were, in that order, 1.1 and 1.
Regarding `Cc1ncsc1-c1ccc([C@H](C)NC(=O)[C@@H]2C[C@@H](O)CN2C(=O)[C@@H](NC(=O)Cn2cc(CCCCCOc3ccccc3-c3csc(-c4csc(Nc5ccc(Cl)cc5)n4)n3)nn2)C(C)(C)C)cc1`, the “fold change (FC)” value in data set [3] amounted to 0.9; in data set [4], 1.1.
Turning to `Cc1ncsc1-c1ccc([C@H](C)NC(=O)[C@@H]2C[C@@H](O)CN2C(=O)[C@@H](NC(=O)CCCCCCCCOc2ccccc2-c2csc(-c3csc(Nc4ccc(Cl)cc4)n3)n2)C(C)(C)C)cc1`, the figures for the “fold change (FC)” value in data set [3] and in data set [4] were 0.6 and 0.7, respectively.
For the molecule `Cc1ncsc1-c1ccc([C@H](C)NC(=O)[C@@H]2C[C@@H](O)CN2C(=O)[C@@H](NC(=O)Cn2cc(COCCOCCOc3ccccc3-c3csc(-c4csc(Nc5ccc(Cl)cc5)n4)n3)nn2)C(C)(C)C)cc1`, the “fold change (FC)” value in data set [3] is recorded as 1.3; in data set [4], 1.1.
For the molecule `O=C1CCC(N2C(=O)c3cccc(NC(=O)CN4CCN(CCCCCCCCC(=O)Nc5ccc(-c6csc(-c7csc(Nc8ccc(Cl)cc8)n7)n6)cc5)CC4)c3C2=O)C(=O)N1` (stereo not given), the results for the “fold change (FC)” value in data set [1] and in data set [2] were 1 and 1.6, respectively.
The like results for `O=C1CCC(N2Cc3c(NC(=O)CCCCCCCCCCCCCC(=O)Nc4ccc(-c5csc(-c6csc(Nc7ccc(Cl)cc7)n6)n5)cc4)cccc3C2=O)C(=O)N1` (stereo not given) were, in that order, 0.9 and 1.
On to `O=C1CCC(N2C(=O)c3cccc(NC(=O)CN4CCN(CCCCCCCCCCCC(=O)Nc5ccc(-c6csc(-c7csc(Nc8ccc(Cl)cc8)n7)n6)cc5)CC4)c3C2=O)C(=O)N1` (stereo not given), for which the “fold change (FC)” value is 1.5 in data set [1] and 1.1 in data set [2].
The like results for `O=C1CCC(N2C(=O)c3cccc(NC(=O)CN4CCN(CCCCCCCCCCC(=O)Nc5ccc(-c6csc(-c7csc(Nc8ccc(Cl)cc8)n7)n6)cc5)CC4)c3C2=O)C(=O)N1` (stereo not given) were, in that order, 1.2 and 1.5.
As to `O=C1CCC(N2C(=O)c3cccc(NC(=O)CN4CCN(CCCCCCC(=O)Nc5ccc(-c6csc(-c7csc(Nc8ccc(Cl)cc8)n7)n6)cc5)CC4)c3C2=O)C(=O)N1` (stereo not given), the figures for the “fold change (FC)” value in data set [1] and in data set [2] were 0.8 and 0.9, respectively.
The like results for `O=C1CCC(N2C(=O)c3cccc(NC(=O)CN4CCN(CCCCCC(=O)Nc5ccc(-c6csc(-c7csc(Nc8ccc(Cl)cc8)n7)n6)cc5)CC4)c3C2=O)C(=O)N1` (stereo not given) were, in that order, 1 and 1.2.
